Laboratory results: patent US12152035B2, “Androgen receptor binding molecule and use thereof” (Industrial Technology Research Institute, priority 2020, dated 2024)

Tests used:
CWR22RV1 cells = assay: Cytotoxicity assay (AlamarBlue, 72 hours); format: cell-based; conditions: 72 hours treatment, concentration not given
Method: (§1) Compound stock solutions of 10 mM were prepared with 100% DMSO and shaken for 10-15 seconds. The compound stock solutions were centrifuged at 12000 rpm (13523 rcf.) for 5 minutes and record the turbidity or precipitation state with a photo snapshot. The compound stock solutions were resuspended by shaking for 10-15 seconds, and serially diluted with 100% DMSO solution to make the compound concentration to 1000 μM, then to 100, 10, and 1 μM, and then 10-fold diluted with medium to 100, 10, 1, 0.1 μM (final 10% DMSO/medium) to complete compound test sample preparation. Compound treatment was performed by adding 10 μL of compound test sample to cells in each well of a 96-well plate (final 1% DMSO/medium).
(§2) Cells (CWR22Rv1 cells or VCaP cells) were cultured in RPMI-1640 medium supplemented with 10% fetal bovine serum, 10,000 U/mL penicillin and 10,000 μg/mL streptomycin. Cells were cultured at 37° C. in a humidified 5% CO2 incubator.
(§3) Cells were seeded in a 96-well plate (1×10^4 cells/well). 10 μL of the above compound test sample was added to each well of the 96-well plate on next day. After 72 hours of compound treatment, 10 μL of AlamaBlue reagent was added to each of 96 wells and incubated for 4 hours. The fluorescence value at Ex/Em=560/590 nm was read with a microplate reader, and the cytotoxicity (%) was calculated.
(§4) According to the above method, the compounds prepared above were subjected to cytotoxicity test with CWR22RV1 cells and VCaP cells.

VCaP cells = assay: Cytotoxicity assay (AlamarBlue, 72 hours); format: cell-based; conditions: 72 hours treatment, concentration not given
Method: as §1, §2, §3, §4

Row | Structure (SMILES) | Cytotoxicity, CWR22RV1 cells (cell viability %) (CWR22RV1 cells) | Cytotoxicity, VCaP cells (cell viability %) (VCaP cells)
1 | Cc1ncsc1-c1ccc(CNC(=O)[C@@H]2C[C@H](O)CN2C(=O)[C@@H](NC(=O)COCCCOc2ccc(C3CCN(C4=Nn5c(nnc5C(F)(F)F)CC4)CC3)cc2)C(C)(C)C)cc1 [Compound 20, (2S,4S)-1-((S)-3,3-dimethyl-2-(2-(3-(4-(1-(3-(trifluoromethyl)-7,8-dihydro-[1,2,4]triazolo[4,3-b]pyridazin-6-yl)piperidin-4-yl)phenoxy)propoxy)acetamido)butanoyl)-4-hydroxy-N-(4-(4-methylthiazol-5-yl)benzyl)pyrrolidine-2-carboxamide] | +++ (<40% : +++) | ++ (40-60% : ++)
2 | O=C1CCC(N2Cc3c(C#CCCCCOc4ccc(C5CCN(C6=Nn7c(nnc7C(F)(F)F)CC6)CC5)cc4)cccc3C2=O)C(=O)N1 (stereo not shown) [Compound 31, 3-(1-oxo-4-(6-(4-(1-(3-(trifluoromethyl)-7,8-dihydro-[1,2,4]triazolo[4,3-b]pyridazin-6-yl)piperidin-4-yl)phenoxy)hex-1-ynyl)isoindolin-2-yl)piperidine-2,6-dione] | + (60-80% : +) | + (60-80% : +)
3 | Cc1ncsc1-c1ccc(CNC(=O)[C@@H]2C[C@H](O)CN2C(=O)[C@@H](NC(=O)COCCCCOc2ccc(C3CCN(C4=Nn5c(nnc5C(F)(F)F)CC4)CC3)cc2)C(C)(C)C)c(O)c1 [Compound 35, (2S,4S)-1-((S)-3,3-dimethyl-2-(2-(4-(4-(1-(3-(trifluoromethyl)-7,8-dihydro-[1,2,4]triazolo[4,3-b]pyridazin-6-yl)piperidin-4-yl)phenoxy)butoxy)acetamido)butanoyl)-4-hydroxy-N-(2-hydroxy-4-(4-methylthiazol-5-yl)benzyl)pyrrolidine-2-carboxamide] | +++ (<40% : +++) | +++ (<40% : +++)
4 | Cc1ncsc1-c1ccc(CNC(=O)[C@@H]2C[C@H](O)CN2C(=O)[C@@H](NC(=O)C2CCC(C(=O)N3CCC(C#Cc4ccc(C5CCN(C6=Nn7c(nnc7C(F)(F)F)CC6)CC5)cc4)CC3)CC2)C(C)(C)C)cc1 (stereo in doubt) [Compound 34, 1-(3,3-dimethyl-2-(4-(4-((4-(1-(3-(trifluoromethyl)-7,8-dihydro-[1,2,4]triazolo[4,3-b]pyridazin-6-yl)piperidin-4-yl)phenyl)ethynyl)piperidine-1-carbonyl)cyclohexane-1-carboxamido)butanoyl)-4-hydroxy-N-(4-(4-methylthiazol-5-yl)benzyl)pyrrolidine-2-carboxamide] | + (60-80% : +) | +++ (<40% : +++)
5 | O=C1CCC(N2Cc3c(NC(=O)COCCCCCCOc4ccc(C5CCN(C6=Nn7c(nnc7C(F)(F)F)CC6)CC5)cc4)cccc3C2=O)C(=O)N1 (stereo not shown) [Compound 32, N-(2-(2,6-dioxopiperidin-3-yl)-1-oxoisoindolin-4-yl)-2-((6-(4-(1-(3-(trifluoromethyl)-7,8-dihydro-[1,2,4]triazolo[4,3-b]pyridazin-6-yl)piperidin-4-yl)phenoxy)hexyl)oxy)acetamide] | + (60-80% : +) | ++ (40-60% : ++)
